Results reported in US20250353841A1 (BIOGEN MA INC., priority 2022, published 2025).

test system: mutant Huntington (HTT) protein; experiment: HTT Mutant HTRF iPSC assay (mHTT protein lowering); format: cell-based; conditions: human iPSC derived from a HTT patient with a poly-Q49 mutation

Compared with `Cc1cn2nc(-c3cc(F)c4nc(NC(=O)C5CCC(N(C)C)C5)cn4c3)cc(C)c2n1` (racemic) [Compound 128, rac-3-(dimethylamino)-N-(6-(2,8-dimethylimidazo[1,2-b]pyridazin-6-yl)-8-fluoroimidazo[1,2-a]pyridin-2-yl)cyclopentane-1-carboxamide], `Cc1cn2nc(-c3cc(F)c4nc(NC(=O)C5CCCC(N(C)C)C5)cn4c3)cc(C)c2n1` (racemic) [Compound 247, 3-(dimethylamino)-N-(6-(2,8-dimethylimidazo[1,2-b]pyridazin-6-yl)-8-fluoroimidazo[1,2-a]pyridin-2-yl)cyclohexane-1-carboxamide] is higher in IC50: less than 100 nM for the first, 100 to 1000 nM for the second.

`Cc1cn2nc(-c3cc(F)c4nc(NC(=O)C5CC56CCNC6)cn4c3)cc(C)c2n1` (racemic) [Compound 253, N-(6-(2,8-dimethylimidazo[1,2-b]pyridazin-6-yl)-8-fluoroimidazo[1,2-a]pyridin-2-yl)-5-azaspiro[2.4]heptane-1-carboxamide] and `Cc1cn2nc(-c3cc(F)c4nc(NC(=O)C5CNC5(C)C)cn4c3)cc(C)c2n1` (racemic) [Compound 260, N-(6-(2,8-dimethylimidazo[1,2-b]pyridazin-6-yl)-8-fluoroimidazo[1,2-a]pyridin-2-yl)-2,2-dimethylazetidine-3-carboxamide] fall in the same range of IC50: 100 to 1000 nM for the first, 100 to 1000 nM for the second.

Compared with `Cc1cn2nc(-c3cc(F)c4nc(NC(=O)C5CN(C)C5(C)C)cn4c3)cc(C)c2n1` (racemic) [Compound 259, N-(6-(2,8-dimethylimidazo[1,2-b]pyridazin-6-yl)-8-fluoroimidazo[1,2-a]pyridin-2-yl)-1,2,2-trimethylazetidine-3-carboxamide], `Cc1cn2nc(-c3cc(F)c4nc(NC(=O)C5CC6CC5CN6)cn4c3)cc(C)c2n1` (racemic) [Compound 280] is lower in IC50: 100 to 1000 nM for the first, less than 100 nM for the second. The second is the more potent here.

First: Cc1cn2nc(-c3cc(F)c4nc(NC(=O)C56CCCN(CC5)C6)cn4c3)cc(C)c2n1 (racemic) [Compound 279]
Second: Cc1cn2nc(-c3cc(F)c4nc(NC(=O)CC5CCNC5)cn4c3)cc(C)c2n1 (racemic) [Compound 283, N-(6-(2,8-dimethylimidazo[1,2-b]pyridazin-6-yl)-8-fluoroimidazo[1,2-a]pyridin-2-yl)-2-(pyrrolidin-3-yl)acetamide]
The IC50 of the first is lower: less than 100 nM for the first, 100 to 1000 nM for the second. The first is the more potent here.

`Cc1cn2nc(-c3cc(F)c4nc(NC(=O)CC5CCCCN5C)nn4c3)cc(C)c2n1` (racemic) [Compound 328, N-(6-(2,8-dimethylimidazo[1,2-b]pyridazin-6-yl)-8-fluoro-[1,2,4]triazolo[1,5-a]pyridin-2-yl)-2-(1-methylpiperidin-2-yl)acetamide] and `Cc1cn2nc(-c3cc(F)c4nc(NC(=O)CC5CCCN5C)nn4c3)cc(C)c2n1` (racemic) [Compound 329, N-(6-(2,8-dimethylimidazo[1,2-b]pyridazin-6-yl)-8-fluoro-[1,2,4]triazolo[1,5-a]pyridin-2-yl)-2-(1-methylpyrrolidin-2-yl)acetamide] fall in the same range of IC50: 100 to 1000 nM for the first, 100 to 1000 nM for the second.

`Cc1cn2nc(-c3cc(F)c4nc(NC(=O)C5CCNC6(CC6)C5)nn4c3)cc(C)c2n1` (racemic) [Compound 330, N-(6-(2,8-dimethylimidazo[1,2-b]pyridazin-6-yl)-8-fluoro-[1,2,4]triazolo[1,5-a]pyridin-2-yl)-4-azaspiro[2.5]octane-7-carboxamide] and `Cc1cn2nc(-c3cc(F)c4nc([C@@H]5CCNC6(CC6)C5)cn4c3)cc(C)c2n1` (single isomer, unassigned) [Compound 179] fall in the same range of IC50: 100 to 1000 nM for the first, 100 to 1000 nM for the second.

`Cc1cn2nc(-c3cc(F)c4nn(C5CCNC(C)(C)C5)nc4c3)cc(C)c2n1` (racemic) [Compound 394, 6-(2,8-dimethylimidazo[1,2-b]pyridazin-6-yl)-2-(2,2-dimethylpiperidin-4-yl)-4-fluoro-2H-benzo[d][1,2,3]triazole] and `Cc1cn2nc(-c3cc(F)c4nn(C5C[C@@H](C)N[C@H](C)C5)nc4c3)cc(C)c2n1` (relative stereo) [Compound 393, 6-(2,8-dimethylimidazo[1,2-b]pyridazin-6-yl)-2-((2R,6R)-2,6-dimethylpiperidin-4-yl)-4-fluoro-2H-benzo[d][1,2,3]triazole] fall in the same range of IC50: 100 to 1000 nM for the first, 100 to 1000 nM for the second.

`Cc1cn2nc(-c3cc(F)c4nn(C5CC6CNCC65)nc4c3)cc(C)c2n1` (racemic) [Compound 397, 2-(3-azabicyclo[3.2.0]heptan-6-yl)-6-(2,8-dimethylimidazo[1,2-b]pyridazin-6-yl)-4-fluoro-2H-benzo[d][1,2,3]triazole] and `CCN1CC[C@@H](N(C)c2nc3c(F)cc(-c4cc(C)c5nc(C)cn5n4)cc3o2)C[C@@H]1C` (relative stereo) [Compound 488, rel-6-(2,8-dimethylimidazo[1,2-b]pyridazin-6-yl)-N-((2R,4S)-1-ethyl-2-methylpiperidin-4-yl)-4-fluoro-N-methylbenzo[d]oxazol-2-amine] fall in the same range of IC50: 100 to 1000 nM for the first, 100 to 1000 nM for the second.

Compared with `Cn1cc2cc(-c3cc(F)c4nc([C@H]5CNCCO5)cn4c3)cc(F)c2n1` (single isomer, unassigned) [Compound 70], `Cn1cc2cc(-c3cc(F)c4nc([C@@H]5CNCCO5)cn4c3)cc(F)c2n1` (single isomer, unassigned) [Compound 71] is lower in IC50: 1000 to 9000 nM for the first, 100 to 1000 nM for the second. The second is the more potent here.

`Cc1cn2nc(-c3cc(F)c4nc([C@H]5CCC6(CCNCC6)C5)cn4c3)cc(C)c2n1` (single isomer, unassigned) [Compound 114] and `Cc1cn2nc(-c3cc(F)c4nc([C@@H]5CCC6(CCNCC6)C5)cn4c3)cc(C)c2n1` (single isomer, unassigned) [Compound 119] cannot be ordered by IC50: less than 100 nM for the first, less than 100 nM for the second.

First: Cc1cn2nc(-c3cc(F)c4nc([C@]56CC[C@@H](C5)NC6)cn4c3)cc(C)c2n1 (single isomer, unassigned) [Compound 115]
Second: Cc1cn2nc(-c3cc(F)c4nc([C@@]56CC[C@H](C5)NC6)cn4c3)cc(C)c2n1 (single isomer, unassigned) [Compound 116]
The IC50 of the first is lower: 100 to 1000 nM for the first, 1000 to 9000 nM for the second.

Compared with `Cc1cn2nc(-c3cc(F)c4nc([C@H]5CCCNC5)cn4c3)cc(C)c2n1` (single isomer, unassigned) [Compound 117], `Cc1cn2nc(-c3cc(F)c4nc([C@@H]5CCCNC5)cn4c3)cc(C)c2n1` (single isomer, unassigned) [Compound 118] is lower in IC50: 100 to 1000 nM for the first, less than 100 nM for the second. The second is the more potent here.

`Cc1cn2nc(-c3cc(F)c4nc([C@H]5C[C@@]6(CN[C@H](C)C6)C5)cn4c3)cc(C)c2n1` (single isomer, unassigned) [Compound 176, 6-(8-fluoro-2-((2S*,4r,7S*)-7-methyl-6-azaspiro[3.4]octan-2-yl)imidazo[1,2-a]pyridin-6-yl)-2,8-dimethylimidazo[1,2-b]pyridazine] and `Cc1cn2nc(-c3cc(F)c4nc([C@H]5C[C@]6(CN[C@@H](C)C6)C5)cn4c3)cc(C)c2n1` (single isomer, unassigned) [Compound 177, 6-(8-fluoro-2-((2S*,4r,7S*)-7-methyl-6-azaspiro[3.4]octan-2-yl)imidazo[1,2-a]pyridin-6-yl)-2,8-dimethylimidazo[1,2-b]pyridazine] cannot be ordered by IC50: less than 100 nM for the first, less than 100 nM for the second.

`Cc1cn2nc(-c3cc(F)c4nc([C@H]5C[C@]6(CN[C@H](C)C6)C5)cn4c3)cc(C)c2n1` (single isomer, unassigned) [Compound 178, 6-(8-fluoro-2-((2R*,4r,7R*)-7-methyl-6-azaspiro[3.4]octan-2-yl)imidazo[1,2-a]pyridin-6-yl)-2,8-dimethylimidazo[1,2-b]pyridazine] showed an IC50 of less than 100 nM.
